{"source": "patent US12384817B2", "about": "“Peptide having protective activity against cell damage caused by particulate matter, and uses for same” (CAREGEN CO., LTD., priority 2020, dated 2025)", "key": {"[1]": {"tested_on": "cytochrome P450", "assay": "Cytochrome P450 activity in particulate matter-treated A549 cells (P450-Glo Assay)", "format": "cell-based", "conditions": "A549 human alveolar epithelial cells; peptide pretreatment 1 hour at 20, 100, 200 μM; then 50 μg/cm^2 urban particulate matter 24 hours; FIG. 4", "description": "In addition, in order to confirm whether the peptide can suppress respiratory damage caused by particulate matter, an experiment for measuring the activity of cytochrome P450 was also performed on A549 cells, which are human alveolar epithelial cells.\n(§1) First, human alveolar epithelial cells, A549 cells were seeded into a 96-well plate at a density of 1.2×10^4 cells/well. After overnight incubation, the media were replaced with serum-free media. The alveolar epithelial cells, A549 cells were pretreated with the synthesized peptides for 1 hour at each concentration (20 μM, 100 μM, and 200 μM). Then, the cells were treated with 50 μg/cm^2 of urban particulate matter (Sigma, NIST1648A) for 24 hours. After the treated cells were collected, the activity of cytochrome P450 was measured using P450-Glo™ Assay kit (Promega)."}, "[2]": {"tested_on": "cytochrome P450", "assay": "Cytochrome P450 activity in particulate matter-treated HaCaT cells (P450-Glo Assay)", "format": "cell-based", "conditions": "HaCaT human keratinocytes; peptide pretreatment 1 hour at 20, 100, 200 μM; then 50 μg/cm^2 urban particulate matter 24 hours; FIG. 3", "excerpt": "When polyaromatic hydrocarbons (PAHs) present in particulate matter penetrate into cells and bind to AHR, it promotes nuclear translocation of AHR. It is known that the AHR translocated into the nucleus forms a complex AHR/ARNT with an AHR nuclear translocator (ARNT), and this complex act as a transcription factor to promote the expression of cytochrome P450 (CYPs). In order to confirm the effect of the synthesized peptide in inhibiting cell damage caused by particulate matter, an experiment was performed for confirming whether the peptide inhibits the activity of cytochrome P450 after the cells were treated with particulate matter.\nas §1, with “First, HaCaT cells, which are” for “First,”, “human keratinocytes,” for “human alveolar epithelial cells, A549 cells”, “of 1×10^4” for “of 1.2×10^4”, “The keratinocytes, HaCaT” for “The alveolar epithelial cells, A549 cells”, “the keratinocytes” for “the treated cells”"}}, "note": "No end group written: not given here.", "data": [{"sequence": "SSNAEVLALF [SEQ ID NO: 1, SSNAEVLALF]", "values": [{"measurement": "activity of cytochrome P450 increased by the treatment of particulate matter", "setting": "[1]", "result": "reduced in a concentration dependent manner"}, {"measurement": "activity of cytochrome P450 increased by the treatment of particulate matter", "setting": "[2]", "result": "reduced in a concentration dependent manner"}]}]}
